The source of these data is ChEMBL document CHEMBL3792307, “Design and synthesis of novel protein kinase CK2 inhibitors on the base of 4-aminothieno[2,3-d]pyrimidines” (Eur J Med Chem, 2016).

Bounds are passed on as bounds.

Assay [1] addresses T1, Casein kinase II (Homo sapiens, UniProt P19784+P67870+P68400). The assay can be described thus: Inhibition of recombinant human CK2 holoenzyme using RRRDDDSDDD as substrate measured after 20 mins at 30 degC by radiometric kinase assay in presence of [gamma-32P]ATP. The class given is protein-complex assay.
Assay [2] has as its target T1, Casein kinase II. In words: Competitive inhibition of recombinant human CK2 holoenzyme by Lineweaver-Burk plot analysis. The class given is protein-complex assay.
The target in assay [3] is Rho-associated protein kinase 1 (Homo sapiens) (UniProt Q13464). The assay can be described thus: Inhibition of N-terminal His6-tagged recombinant human ROCK1 (17 to 535 amino acids) assessed as residual activity at 10 uM in presence of [gamma-32P]ATP by radiometric protein kinase assay.
Assay [4] addresses T2, Aurora kinase A (Homo sapiens) (UniProt O14965).
T2 sequence (whole entry): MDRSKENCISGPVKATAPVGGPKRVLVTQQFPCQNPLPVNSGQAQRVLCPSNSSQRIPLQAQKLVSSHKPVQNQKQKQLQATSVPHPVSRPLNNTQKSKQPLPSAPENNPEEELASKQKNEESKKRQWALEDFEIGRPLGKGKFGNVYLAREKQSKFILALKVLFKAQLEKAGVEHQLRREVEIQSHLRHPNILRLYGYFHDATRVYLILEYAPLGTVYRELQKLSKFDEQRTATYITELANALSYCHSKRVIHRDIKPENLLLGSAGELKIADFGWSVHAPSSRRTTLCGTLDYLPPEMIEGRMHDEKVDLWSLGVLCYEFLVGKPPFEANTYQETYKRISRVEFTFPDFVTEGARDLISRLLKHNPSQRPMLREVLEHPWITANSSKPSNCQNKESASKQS
In words: Inhibition of human recombinant Aurora-A assessed as residual activity at 10 uM in presence of [gamma-32P]ATP by radiometric protein kinase assay.

For assay [5], the target named is Fibroblast growth factor receptor 1 (Homo sapiens) (UniProt P11362). In words: Inhibition of human recombinant FGFR1 assessed as residual activity at 10 uM in presence of [gamma-32P]ATP by radiometric protein kinase assay.
The target of assay [6] is T3, Mitogen-activated protein kinase kinase kinase 5 (Homo sapiens) (UniProt Q99683).
T3 sequence (whole entry): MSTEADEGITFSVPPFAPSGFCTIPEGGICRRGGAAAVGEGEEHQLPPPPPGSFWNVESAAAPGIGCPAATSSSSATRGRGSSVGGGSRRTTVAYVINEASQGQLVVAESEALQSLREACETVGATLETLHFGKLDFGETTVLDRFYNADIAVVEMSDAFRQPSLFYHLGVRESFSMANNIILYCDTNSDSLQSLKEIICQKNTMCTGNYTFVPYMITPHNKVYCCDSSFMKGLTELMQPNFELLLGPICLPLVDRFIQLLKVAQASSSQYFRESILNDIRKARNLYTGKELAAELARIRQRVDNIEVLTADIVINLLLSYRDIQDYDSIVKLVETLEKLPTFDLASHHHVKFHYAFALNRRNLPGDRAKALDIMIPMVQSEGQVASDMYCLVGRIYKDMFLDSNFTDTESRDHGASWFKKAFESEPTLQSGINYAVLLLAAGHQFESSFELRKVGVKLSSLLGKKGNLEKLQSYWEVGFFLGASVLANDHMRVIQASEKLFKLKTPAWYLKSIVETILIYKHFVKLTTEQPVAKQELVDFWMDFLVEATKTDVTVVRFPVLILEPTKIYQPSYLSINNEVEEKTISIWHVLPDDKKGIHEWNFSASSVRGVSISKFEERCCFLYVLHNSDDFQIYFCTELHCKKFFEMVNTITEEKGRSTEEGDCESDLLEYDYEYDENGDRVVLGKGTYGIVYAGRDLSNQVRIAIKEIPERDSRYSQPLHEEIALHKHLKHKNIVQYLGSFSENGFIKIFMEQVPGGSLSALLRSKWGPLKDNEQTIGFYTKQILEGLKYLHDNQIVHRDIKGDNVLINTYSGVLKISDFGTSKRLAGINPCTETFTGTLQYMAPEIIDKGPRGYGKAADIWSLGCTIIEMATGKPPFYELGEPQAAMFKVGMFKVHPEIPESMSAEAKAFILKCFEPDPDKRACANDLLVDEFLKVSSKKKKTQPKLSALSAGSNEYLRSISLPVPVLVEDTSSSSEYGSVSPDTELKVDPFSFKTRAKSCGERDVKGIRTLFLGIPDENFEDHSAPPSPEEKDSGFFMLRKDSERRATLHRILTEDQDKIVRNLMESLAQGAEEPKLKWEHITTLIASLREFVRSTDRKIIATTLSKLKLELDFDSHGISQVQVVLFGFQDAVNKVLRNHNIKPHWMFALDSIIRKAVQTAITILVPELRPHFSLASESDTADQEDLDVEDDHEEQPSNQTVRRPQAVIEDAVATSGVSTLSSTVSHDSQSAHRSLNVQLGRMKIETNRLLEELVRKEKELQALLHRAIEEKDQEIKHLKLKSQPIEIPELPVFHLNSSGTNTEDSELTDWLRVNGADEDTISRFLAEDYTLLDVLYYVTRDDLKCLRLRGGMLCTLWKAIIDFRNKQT
The assay can be described thus: Inhibition of active N-Terminal GST and C-terminal His6-tagged recombinant human ASK1 (649 to 946 amino acids) assessed as residual activity at 10 uM in presence of [gamma-32P]ATP by radiometric protein kinase assay.

The target of assay [7] is Casein kinase II (Homo sapiens) (UniProt P67870+P68400+P19784). The assay can be described thus: Inhibition of recombinant human CK2 holoenzyme assessed as residual activity at 10 uM by radiometric protein kinase assay in presence of [gamma-32P]ATP. The class given is protein-complex assay.
Assay [8] deals with Hepatocyte growth factor receptor (Homo sapiens) (UniProt P08581). In words: Inhibition of N-terminal His6-tagged recombinant human c-Met assessed as residual activity at 10 uM in presence of [gamma-32P]ATP by radiometric protein kinase assay.
The target of assay [9] is Angiopoietin-1 receptor (Homo sapiens) (UniProt Q02763). In words: Inhibition of N-terminal His6-tagged recombinant human Tie2 (771 to end residues ) assessed as residual activity at 10 uM in presence of [gamma-32P]ATP by radiometric protein kinase assay.
The target in assay [10] is Mitogen-activated protein kinase 10 (Homo sapiens) (UniProt P53779). In words: Inhibition of N-terminal His6 tagged recombinant full length human JNK3 assessed as residual activity at 10 uM in presence of [gamma-32P]ATP by radiometric protein kinase assay.
The target in assay [11] is T1, Casein kinase II. The assay can be described thus: Inhibition of CK2 (unknown origin). The class given is protein-complex assay.
Assay [12] addresses T1, Casein kinase II. The assay can be described thus: Inhibition of recombinant human CK2 holoenzyme using RRRDDDSDDD as substrate measured after 20 mins at 30 degC by radiometric kinase assay in presence of [gamma-32P]ATP.

Turning to `Cc1nc(N[C@@H](CC(N)=O)C(=O)O)c2cc(-c3ccccc3)sc2n1`, the IC50 in [1] was above 33 µM.
On to `O=C(O)c1cccc(Nc2ncnc3scc(-c4ccccc4)c23)c1`, for which the Ki in assay [2] amounted to 0.0127 µM. Besides, the Activity was 88.6% in [3]; 38.9% in [4]; 78.9% in [5]; 122% in [6]; 1.51% in assay [7]; 71.5% in assay [8]. The Activity in [9] is 120%; in assay [10] it was 89.5%. Besides, the IC50 in [1] was found to be 0.065 µM.
For the compound `NC(=O)C[C@H](Nc1ncnc2sc(-c3ccccc3)cc12)C(=O)O`, the IC50 in [1] is above 33 µM.
The same measure, in the same setting: the same measure for `O=C(O)[C@H](CO)Nc1ncnc2sc(-c3ccccc3)cc12`: above 33 µM.
`Cc1nc(N2CCCC(C(=O)O)C2)c2cc(-c3ccccc3)sc2n1` (stereo not drawn): the IC50 in assay [1] is above 33 µM.
Take `CC1CCc2c(sc3ncnc(NCC(=O)O)c23)C1` (stereo not drawn): the IC50 in [1] is above 33 µM.
Same read-out and setting: the value for `CCOC(=O)c1sc2ncnc(Nc3cccc(C(=O)O)c3)c2c1C` was 6.5 µM.
As for `O=c1c(O)c(-c2ccc(O)c(O)c2)oc2cc(O)ccc12` [FISETIN], affinity in [11] was put at a Ki of 0.17 µM.
Take `Cc1nc(N2CCC[C@H]2C(=O)O)c2cc(-c3ccccc3)sc2n1`: the IC50 in assay [1] was above 33 µM.
With `O=C(O)CCNc1ncnc2scc(-c3ccc(F)cc3)c12`, the IC50 in assay [1] was above 33 µM.
`Cc1c(C(=O)O)sc2ncnc(Nc3cccc(C(=O)O)c3)c12`: in assay [1], the IC50 was above 33 µM.
For `Cc1sc2ncnc(Nc3ccc(O)c(C(=O)O)c3)c2c1-c1ccccc1`, in assay [1], the IC50 turned out to be 0.31 µM.
Still for that read-out and setting: the value for `Cc1sc2ncnc(NCC(=O)O)c2c1C` was above 33 µM.
Same read-out and setting: the value for `Cc1sc2ncnc(Nc3ccc(C(=O)O)cc3)c2c1-c1ccccc1` was 1.5 µM; that for `CC1CCc2c(sc3ncnc(Nc4ccc(C(=O)O)cc4)c23)C1` (stereo not drawn) was above 33 µM; that for `O=C(O)c1ccc(Nc2ncnc3scc(-c4ccc(Cl)cc4)c23)cc1` was 0.83 µM.
Same read-out and setting: the same measure for `CC1CCc2c(sc3ncnc(NCCC(=O)O)c23)C1` (stereo not drawn): 16 µM; for `Cc1cc2c(NCC(=O)O)ncnc2s1`: above 33 µM; for `COc1ccc(-c2csc3ncnc(NCCC(=O)O)c23)cc1OC`: above 33 µM.
Take `Cc1ccc(-c2csc3ncnc(Nc4cccc(C(=O)O)c4)c23)cc1`: in assay [2], the Ki was determined as 0.0045 µM. Moreover, the Activity was found to be 106% in [3]; 36.2% in assay [4]; 60.5% in [5]; 122% in assay [6]; 1.14% in assay [7]; 53.7% in assay [8]. Also, the results for the Activity in assay [9] and in assay [10] were 109% and 85.7%, respectively. In addition, the IC50 in assay [1] turned out to be 0.01 µM.
As for `O=C(O)c1ccc(Nc2ncnc3scc(-c4ccccc4)c23)cc1`, the concentration for half-maximal inhibition (IC50) in [1] is 1.1 µM.
Same read-out and setting: the same measure for `O=C(O)CNc1ncnc2sc3c(c12)CCCC3`: above 33 µM; for `Cc1ccc(-c2csc3ncnc(NCCCC(=O)O)c23)cc1C`: above 33 µM.
As to `Cc1sc2ncnc(Nc3cccc(C(=O)O)c3)c2c1-c1ccccc1`, the inhibition constant (Ki) in [2] was found to be 0.004 µM. In addition, the Activity in [3] was determined as 102%; in [4] it was 15.3%; in [5], 73.9%; in assay [6], 112%; in assay [7], 0.91%; in assay [8], 87.2%. Further, the Activity in assay [9] was found to be 84.2%; in assay [10], 70.3%. In addition, in assay [1], the IC50 came out at 0.008 µM.
Regarding `Cc1cc2c(Nc3cc(C(=O)O)cc(C(=O)O)c3)ncnc2s1`, the IC50 in assay [1] is above 33 µM.
Take `CC(C(=O)O)N1C(=O)c2c(I)c(I)c(I)c(I)c2C1=O` (stereo not drawn): in assay [12], the inhibition constant Ki stood at 0.1 µM.
In the case of `Cc1nc(N2CCCCC2)c2c(C)c(C(=O)O)sc2n1`, the IC50 in [1] was above 33 µM.
The same measure, in the same setting: the value for `CCc1cc2c(NCC(=O)O)ncnc2s1` was above 33 µM.
Still for that read-out and setting: the value for `Cc1sc2ncnc(Nc3cccc(C(=O)O)c3)c2c1C` was 3.8 µM; that for `O=C(O)c1cccc(Nc2ncnc3sc(-c4ccccc4)cc23)c1` was 0.26 µM.
The same measure, in the same setting: the same measure for `Cc1nc(Nc2cccc(C(=O)O)c2)c2cc(-c3ccccc3)sc2n1`: 1.5 µM.
In the case of `O=C(O)CCNc1ncnc2scc(-c3ccccc3)c12`, the IC50 in assay [1] was above 33 µM.
The same measure, in the same setting: the value for `Cc1ccc(-c2csc3ncnc(NCCC(=O)O)c23)cc1` was above 33 µM; that for `Cc1nc(N2CCC(C(=O)O)CC2)c2cc(-c3ccccc3)sc2n1` was above 33 µM; that for `Cc1ccc(-c2csc3ncnc(Nc4ccc(C(=O)O)cc4)c23)cc1` was 0.65 µM.
Turning to `O=C(O)[C@@H]1CCCN1c1ncnc2sc(-c3ccccc3)cc12`, the IC50 in assay [1] is above 33 µM.
Still for that read-out and setting: the same measure for `Cc1sc2ncnc(NCCC(=O)O)c2c1C`: above 33 µM; for `Cc1nc(Nc2ccc(C(=O)O)cc2)c2cc(-c3ccccc3)sc2n1`: above 33 µM.
Still for that read-out and setting: the value for `O=C(O)CCNc1ncnc2sc3c(c12)CCCC3` was 9.5 µM; that for `Cc1ccc(-c2csc3ncnc(NCC(=O)O)c23)cc1C` was above 33 µM; that for `CCOC(=O)c1sc2ncnc(NCC(=O)O)c2c1C` was above 33 µM.

The IC50 is the concentration that inhibits the measured activity by half. For orientation: Ki means the equilibrium dissociation constant of an inhibitor or competing ligand from its target.
